According to ChEMBL document CHEMBL5137119, “Total Syntheses and Antibacterial Evaluations of Neocyclomorusin and Related Flavones” (2022):
In brackets after ≈: the same amount, converted by molar mass.

Tests used:
Format in all cases: functional
[1] = tested on: Escherichia coli; assay: Antibacterial activity against Escherichia coli ATCC 25922 assessed as inhibition of bacterial growth incubated for 24 hrs by optical density based analysis
[2] = tested on: Staphylococcus aureus; assay: Antibacterial activity against Staphylococcus aureus ATCC 25923 assessed as inhibition of bacterial growth incubated for 24 hrs by optical density based analysis
[3] = tested on: Staphylococcus epidermidis; assay: Antibacterial activity against Staphylococcus epidermidis ATCC 51625 assessed as inhibition of bacterial growth incubated for 24 hrs by optical density based analysis
[4] = tested on: Bacillus subtilis; assay: Antibacterial activity against Bacillus subtilis ATCC 11774 assessed as inhibition of bacterial growth incubated for 24 hrs by optical density based analysis
[5] = tested on: Staphylococcus aureus; assay: Antibacterial activity against Staphylococcus aureus assessed as inhibition of bacterial growth
[6] = tested on: Escherichia coli; assay: Antibacterial activity against Escherichia coli assessed as inhibition of bacterial growth incubated for 18 hrs by p-iodonitrotetrazolium chloride dye based colorimetric assay
[7] = tested on: Klebsiella aerogenes; assay: Antibacterial activity against Enterobacter aerogenes assessed as inhibition of bacterial growth incubated for 18 hrs by p-iodonitrotetrazolium chloride dye based colorimetric assay
[8] = tested on: Klebsiella pneumoniae; assay: Antibacterial activity against Klebsiella pneumoniae assessed as inhibition of bacterial growth incubated for 18 hrs by p-iodonitrotetrazolium chloride dye based colorimetric assay
[9] = tested on: Providencia stuartii; assay: Antibacterial activity against Providencia stuartii assessed as inhibition of bacterial growth incubated for 18 hrs by p-iodonitrotetrazolium chloride dye based colorimetric assay
[10] = tested on: Enterobacter cloacae; assay: Antibacterial activity against Enterobacter cloacae assessed as inhibition of bacterial growth incubated for 18 hrs by p-iodonitrotetrazolium chloride dye based colorimetric assay
[11] = tested on: Pseudomonas aeruginosa; assay: Antibacterial activity against Pseudomonas aeruginosa assessed as inhibition of bacterial growth incubated for 18 hrs by p-iodonitrotetrazolium chloride dye based colorimetric assay

Compound | MIC [1] | MIC [2] | MIC [3] | MIC [4] | MIC [5] | MIC [6] | MIC [7] | MIC [8] | MIC [9] | MIC [10] | MIC [11]
COc1cc(O)c2c(=O)c3c(oc2c1)-c1ccc(O)cc1OC(C(C)(C)O)C3 (stereo unspecified) | > 128 µg/mL | 128 µg/mL (≈ 333 µM) | > 128 µg/mL | > 128 µg/mL | 128 µg/mL (≈ 333 µM) |  |  |  |  |  | 
NC[C@H]1O[C@H](O[C@H]2[C@H](O)[C@@H](O[C@H]3O[C@H](CO)[C@@H](O)[C@H](N)[C@H]3O)[C@H](N)C[C@@H]2N)[C@H](O)[C@@H](O)[C@@H]1O [KANAMYCIN] | 16 µg/mL (≈ 33 µM) | 4 µg/mL (≈ 8.26 µM) | 1 µg/mL (≈ 2.06 µM) | 2 µg/mL (≈ 4.13 µM) |  |  |  |  |  |  | 
CC1(C)C=Cc2c(cc(O)c3c(=O)c4c(oc23)-c2ccc(O)cc2OC(C(C)(C)O)C4)O1 (stereo unspecified) [NEOCYCLOMORUSIN] | > 128 µg/mL | 64 µg/mL (≈ 147 µM) | > 128 µg/mL | 64 µg/mL (≈ 147 µM) |  | 4 µg/mL (≈ 9.16 µM) | 4 µg/mL (≈ 9.16 µM) | 4 µg/mL (≈ 9.16 µM) | 4 µg/mL (≈ 9.16 µM) | 4 µg/mL (≈ 9.16 µM) | 4 µg/mL (≈ 9.16 µM)
CC1(C)S[C@@H]2[C@H](NC(=O)[C@H](N)c3ccccc3)C(=O)N2[C@H]1C(=O)O [AMPICILLIN] | 64 µg/mL (≈ 183 µM) | 4 µg/mL (≈ 11.4 µM) | 128 µg/mL (≈ 366 µM) | > 128 µg/mL |  |  |  |  |  |  | 
CC(C)=CCc1c(-c2ccc(O)cc2O)oc2c3c(cc(O)c2c1=O)OC(C)(C)C=C3 [MORUSIN] | > 128 µg/mL | 8 µg/mL (≈ 19 µM) | 8 µg/mL (≈ 19 µM) | 16 µg/mL (≈ 38.1 µM) |  |  |  |  |  |  | 
CC(C)=CCc1c(-c2ccc(O)cc2O)oc2cc3c(c(O)c2c1=O)C=CC(C)(C)O3 [CUDRAFLAVONE B] | > 128 µg/mL | 4 µg/mL (≈ 9.51 µM) | 16 µg/mL (≈ 38.1 µM) | 16 µg/mL (≈ 38.1 µM) |  |  |  |  |  |  | 
